Reference: PubChem BioAssay AID248 (DTP/NCI, 2004)
Values joined by “and” are separate entries in the source; they are usually repeats but may differ in a detail not shown here. Equal entries are not always repeated. Toxic doses and inconclusive results are not listed. Rule as the data show it: active = T/C of 150% or more; inactive = T/C below 125%.

Test system: L1210 leukemia ip in BDF1 mice, survival T/C
Experiment: NCI In Vivo Anticancer Drug Screen. Data for tumor model L1210 Leukemia (intraperitoneal) in B6D2F1 (BDF1) mice
Conditions: endpoint: mean survival time, higher = longer survival
Summary of the method: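 Mice bearing the transplanted tumor received compound or vehicle. Survival of the treated group was divided by that of the vehicle-treated control group to give the ratio.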

[1] = dose: 100.0 mg/kg/injection, schedule: Q04DX003 (ip), vehicle: Klucel (hydroxypropylcellulose) (HPC)
[2] = dose: 200.0 mg/kg/injection, schedule: Q04DX003 (ip), vehicle: Klucel (hydroxypropylcellulose) (HPC)
[3] = dose: 400.0 mg/kg/injection, schedule: Q04DX003 (ip), vehicle: Klucel (hydroxypropylcellulose) (HPC)
[4] = dose: 100.0 mg/kg/injection, schedule: Q01DX001 (ip), vehicle: saline
[5] = dose: 100.0 mg/kg/injection, schedule: Q04DX003 (ip), vehicle: saline
[6] = dose: 200.0 mg/kg/injection, schedule: Q01DX001 (ip), vehicle: saline
[7] = dose: 200.0 mg/kg/injection, schedule: Q04DX003 (ip), vehicle: saline
[8] = dose: 400.0 mg/kg/injection, schedule: Q01DX001 (ip), vehicle: saline
[9] = dose: 400.0 mg/kg/injection, schedule: Q04DX003 (ip), vehicle: saline
[10] = dose: 100.0 mg/kg/injection, schedule: Q01DX009 (ip), vehicle: saline with Tween-80
[11] = dose: 100.0 mg/kg/injection, schedule: Q04DX003 (ip), vehicle: saline with Tween-80
[12] = dose: 200.0 mg/kg/injection, schedule: Q01DX009 (ip), vehicle: saline with Tween-80
[13] = dose: 200.0 mg/kg/injection, schedule: Q04DX003 (ip), vehicle: saline with Tween-80
[14] = dose: 6.25 mg/kg/injection, schedule: Q04DX002 (ip), vehicle: saline with Tween-80
[15] = dose: 12.5 mg/kg/injection, schedule: Q04DX002 (ip), vehicle: saline with Tween-80
[16] = dose: 25.0 mg/kg/injection, schedule: Q04DX002 (ip), vehicle: saline with Tween-80

Measured: T/C

Clc1ccc(C(Cl)c2ccc(Cl)cc2)cc1
inactive: [1] 105 % of control | [2] 107 % of control | [3] 107 % of control

CN1C2CCC1CC(OC(=O)c1ccc(O)cc1)C2 (configuration not stated)
inactive: dose: 9.38 mg/kg/injection, schedule: Q01DX001 (ip), vehicle: saline 94 % of control | dose: 18.75 mg/kg/injection, schedule: Q01DX001 (ip), vehicle: saline 102 % of control

CCCCCCCCCCCCSC(=S)N(CC)CC
inactive: dose: 87.5 mg/kg/injection, schedule: Q01DX009 (ip), vehicle: other 89 % of control | dose: 175.0 mg/kg/injection, schedule: Q01DX009 (ip), vehicle: other 93 % of control | dose: 350.0 mg/kg/injection, schedule: Q01DX009 (ip), vehicle: other 97 % of control

CN(C)C(=O)Nc1cccc(OP(=O)(Oc2ccccc2)Oc2ccccc2)c1
inactive: [1] 91 % of control | [2] 94 % of control | [3] 98 % of control

CC(C)CCCC(C)C1CCC2C3CC(=O)OC45CC4CCC5(C)C3CCC12C (configuration not stated)
inactive: dose: 100.0 mg/kg/injection, schedule: Q01DX001 (ip), vehicle: acetone 94 % of control | dose: 100.0 mg/kg/injection, schedule: Q01DX009 (ip), vehicle: acetone 89 % of control | dose: 200.0 mg/kg/injection, schedule: Q01DX001 (ip), vehicle: acetone 89 % of control | dose: 200.0 mg/kg/injection, schedule: Q01DX009 (ip), vehicle: acetone 91 % of control | dose: 400.0 mg/kg/injection, schedule: Q01DX001 (ip), vehicle: acetone 91 % of control | dose: 400.0 mg/kg/injection, schedule: Q01DX009 (ip), vehicle: acetone 90 % of control

CCS(=O)(=O)c1ccc(C)cc1
inactive: [4] 95 % of control | dose: 100.0 mg/kg/injection, schedule: Q01DX009 (ip), vehicle: saline 89 % of control | [5] 109 % of control | [6] 93 % of control | dose: 200.0 mg/kg/injection, schedule: Q01DX009 (ip), vehicle: saline 95 % of control | [7] 95 % of control | [8] 96 % of control | dose: 400.0 mg/kg/injection, schedule: Q01DX009 (ip), vehicle: saline 87 % of control | [9] 98 % of control

O=C(CCCl)Oc1c(Cl)c(Cl)c(Cl)c(Cl)c1Cl
inactive: dose: 50.0 mg/kg/injection, schedule: Q01DX001 (ip), vehicle: saline with Tween-80 98 % of control | dose: 50.0 mg/kg/injection, schedule: Q01DX009 (ip), vehicle: saline with Tween-80 111 % of control | dose: 50.0 mg/kg/injection, schedule: Q04DX003 (ip), vehicle: saline with Tween-80 95 % of control | dose: 100.0 mg/kg/injection, schedule: Q01DX001 (ip), vehicle: saline with Tween-80 96 % of control | [10] 103 % of control | [11] 97 % of control | dose: 200.0 mg/kg/injection, schedule: Q01DX001 (ip), vehicle: saline with Tween-80 100 % of control | [12] 100 % of control | [13] 93 % of control

O=C(COc1cccc(Cl)c1)Nc1ccc(C(=O)CCl)cc1
inactive: dose: 100.0 mg/kg/injection, schedule: Q01DX001 (ip), vehicle: gum acacia 90 % of control | dose: 200.0 mg/kg/injection, schedule: Q01DX001 (ip), vehicle: gum acacia 100 % of control | dose: 400.0 mg/kg/injection, schedule: Q01DX001 (ip), vehicle: gum acacia 99 % of control

CC12CCC3c4ccc(O)cc4CCC3C1CCC2=O (configuration not stated)
inactive: dose: 100.0 mg/kg/injection, schedule: Q01DX001 (sc), vehicle: steriod suspending solution 92 % of control | dose: 200.0 mg/kg/injection, schedule: Q01DX001 (sc), vehicle: steriod suspending solution 92 % of control | dose: 400.0 mg/kg/injection, schedule: Q01DX001 (sc), vehicle: steriod suspending solution 86 % of control

CCCCCCCCCCCCCCCCCCOc1ccc(Cl)cc1Cl
inactive: dose: 100.0 mg/kg/injection, schedule: Q04DX002 (ip), vehicle: other 98 % of control | dose: 200.0 mg/kg/injection, schedule: Q04DX002 (ip), vehicle: other 102 % of control | dose: 400.0 mg/kg/injection, schedule: Q04DX002 (ip), vehicle: other 102 % of control

CCCCC(=O)Nc1cccc(O)c1
inactive: [10] 90 % of control | [12] 93 % of control | dose: 400.0 mg/kg/injection, schedule: Q01DX009 (ip), vehicle: saline with Tween-80 107 % of control

O=C(O)CC(O)c1ccccc1 (configuration not stated)
inactive: dose: 75.0 mg/kg/injection, schedule: Q01DX001 (ip), vehicle: saline 109 % of control | dose: 150.0 mg/kg/injection, schedule: Q01DX001 (ip), vehicle: saline 93 % of control | dose: 300.0 mg/kg/injection, schedule: Q01DX001 (ip), vehicle: saline 112 % of control

O=C1CNC(=O)N1c1cccc(Cl)c1
inactive: [11] 100 % of control | [13] 100 % of control | dose: 400.0 mg/kg/injection, schedule: Q04DX003 (ip), vehicle: saline with Tween-80 102 % of control

c1cc[c]([Sn]([c]2ccccc2)([c]2ccccc2)[n]2nnc3ccccc32)cc1
inactive: [14] 96 % of control | [15] 101 % of control | [16] 101 % of control

CCCCCCCC/C=C\CCCCCCCCN1CC(C(=O)[O][Pb]([CH2]C)([CH2]C)[CH2]C)CC1=O (configuration not stated)
inactive: dose: 1.5 mg/kg/injection, schedule: Q01DX009 (ip), vehicle: saline with Tween-80 100 % of control | dose: 3.0 mg/kg/injection, schedule: Q01DX009 (ip), vehicle: saline with Tween-80 101 % of control | dose: 6.0 mg/kg/injection, schedule: Q01DX009 (ip), vehicle: saline with Tween-80 100 % of control | dose: 6.25 mg/kg/injection, schedule: Q01DX009 (ip), vehicle: saline with Tween-80 94 % of control | [15] 108 % of control | [16] 105 % of control

O=C1NC2/C=C/CCCCC12 (configuration not stated)
inactive: dose: 100.0 mg/kg/injection, schedule: Q04DX003 (ip), vehicle: other 95 % of control | dose: 200.0 mg/kg/injection, schedule: Q04DX003 (ip), vehicle: other 101 % of control | dose: 400.0 mg/kg/injection, schedule: Q04DX003 (ip), vehicle: other 92 % of control

C/C(=C(/CCO)SCC/C(=N/O)c1ccccc1)N(C=O)Cc1cnc(C)nc1N
inactive: [5] 104 % of control | [7] 97 % of control | [9] 93 % of control

O=C1CCCCCCCC1O (configuration not stated)
inactive: dose: 50.0 mg/kg/injection, schedule: Q01DX001 (ip), vehicle: saline 96 % of control | [4] 98 % of control | [6] 102 % of control | [8] 104 % of control

CN(C)Cc1ccccc1CO
inactive: dose: 75.0 mg/kg/injection, schedule: Q04DX002 (ip), vehicle: Klucel (hydroxypropylcellulose) (HPC) 101 % of control | dose: 150.0 mg/kg/injection, schedule: Q04DX002 (ip), vehicle: Klucel (hydroxypropylcellulose) (HPC) 90 % of control | dose: 300.0 mg/kg/injection, schedule: Q04DX002 (ip), vehicle: Klucel (hydroxypropylcellulose) (HPC) 97 % of control

C#CC(OC(=O)NC(C(=O)OC)C(C)C)(c1ccccc1)c1ccccc1 (configuration not stated)
inactive: dose: 50.0 mg/kg/injection, schedule: Q04DX002 (ip), vehicle: saline with Tween-80 100 % of control | dose: 100.0 mg/kg/injection, schedule: Q04DX002 (ip), vehicle: saline with Tween-80 105 % of control and 114 % of control | dose: 200.0 mg/kg/injection, schedule: Q04DX002 (ip), vehicle: saline with Tween-80 122 % of control

Nc1cnc([S][Sn]([c]2ccccc2)([c]2ccccc2)[c]2ccccc2)s1
inactive: [14] 101 % of control | [15] 96 % of control | [16] 104 % of control

CCCCCCCCCCCCCC(=O)CC(=O)OC
inactive: dose: 75.0 mg/kg/injection, schedule: Q04DX003 (ip), vehicle: Klucel (hydroxypropylcellulose) (HPC) 94 % of control | dose: 100.0 mg/kg/injection, schedule: Q01DX001 (ip), vehicle: Klucel (hydroxypropylcellulose) (HPC) 103 % of control | dose: 150.0 mg/kg/injection, schedule: Q04DX003 (ip), vehicle: Klucel (hydroxypropylcellulose) (HPC) 106 % of control | dose: 200.0 mg/kg/injection, schedule: Q01DX001 (ip), vehicle: Klucel (hydroxypropylcellulose) (HPC) 100 % of control | dose: 300.0 mg/kg/injection, schedule: Q04DX003 (ip), vehicle: Klucel (hydroxypropylcellulose) (HPC) 93 % of control | dose: 400.0 mg/kg/injection, schedule: Q01DX001 (ip), vehicle: Klucel (hydroxypropylcellulose) (HPC) 96 % of control
